Data from patent US20100190755A1, “TETRACYCLINE COMPOUNDS FOR THE TREATMENT OF RHEUMATOID ARTHRITIS AND RELATED METHODS OF TREATMENT” (priority 2008, published 2010).
≈ marks a conversion by molar mass, not a printed value.

Assays:
MMP-9 = assay: Paw extract biomarker ELISA, CIA mice: MMP-9; format: in vivo, mouse; settings: paw extracts from CIA mice
Procedure, shortened: (§1)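 ELISA of cleared paw homogenates gave the readout. Paws, skinned and taken after 5-7 days of daily i.p. treatment started at arthritis onset, were homogenized in ice-cold PBS containing protease inhibitor. Arthritis had been induced in male DBA/1 mice with collagen in CFA, then boosted with collagen in IFA.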

[1] = tested on: collagen-induced arthritis (CIA) in male DBA/1 mice; assay: Murine collagen-induced arthritis (CIA) model, Example 2; format: in vivo, mouse
Procedure, shortened: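 Male DBA/1 mice immunised i.d. with 200 μg bovine type II collagen in CFA, boosted day 21 with 100 μg in IFA. Compounds given i.p. daily for 7 days from disease onset (day 3-4 after boost); paw thickness by micrometer and clinical score (0–4) recorded daily; % inhibition from cumulative Δ paw thickness.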

[2] = Pharmacokinetics in rats after i.v. and oral dosing; format: in vivo; settings: rat
Protocol: Pre-cannulated (jugular vein and carotid artery for i.v. group and carotid artery for oral group) male CD/IGS rats (approximately 250 g) were used. Rats were fasted overnight prior to dosing with access to food restored 2 hours after dosing. Rats were administered with approximately 0.25 mL compound (1 mg/kg dose) for i.v. route (via jugular vein over 20 seconds) or 0.5 mL solution (5 mg/kg dose) orally. Blood (300 μL) was collected in tubes with EDTA anticoagulant at various time points, centrifuged and plasma collected and stored frozen at −20° C. Animals were euthanized by CO2 following the final blood collection. Plasma was extracted (0.1% trifluoroacetic acid in 67% acetonitrile/33% water) and levels of compound quantified by HPLC/MS against a standard curve.

[3] = tested on: E. coli ATCC25922 (tetracycline sensitive); assay: E. coli MIC, broth micro-dilution per CLSI guidelines (Table 3); format: cell-based
[4] = tested on: collagen-induced arthritis (CIA) in male DBA/1 mice; assay: CIA model, Example 3 (cumulative scores vs untreated controls); format: in vivo; settings: Mus musculus
Procedure, shortened: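 Immunised intradermally with bovine type II collagen in CFA and boosted at day 21 in IFA. After onset, tetracycline derivatives given daily i.p. or orally for 8 to 15 days. Daily visual inflammation scores (0–4 scale) and micrometer paw thickness summed into cumulative scores.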

IL-1 = assay: Paw extract biomarker ELISA, CIA mice: IL-1; format: in vivo, mouse; settings: paw extracts from CIA mice
Procedure, shortened: as §1

IL-6 = assay: Paw extract biomarker ELISA, CIA mice: IL-6; format: in vivo, mouse; settings: paw extracts from CIA mice
Procedure, shortened: as §1

[5] = tested on: cytokines (IL-1, IL-6, RANKL and MCP-1) and a matrix metalloproteinase (MMP-9); assay: Paw extract biomarker ELISA, CIA mice: whole panel (statements in words); format: in vivo, mouse
Procedure, shortened: as §1

MCP-1 = assay: Paw extract biomarker ELISA, CIA mice: MCP-1; format: in vivo, mouse; settings: paw extracts from CIA mice
Procedure, shortened: as §1

[6] = tested on: Protein synthesis (E. coli S30 Extract System); assay: Protein synthesis inhibition, in vitro transcription/translation assay (E. coli S30 Extract System for Circular DNA); format: biochemical
E. coli 25922 = assay: Antibacterial activity MIC, Gram- (Table 9); format: cell-based; settings: Escherichia coli, CAMHB, 35° C., approximately 18 hr
Procedure, shortened: (§2)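 Broth microdilution in cation-adjusted Mueller Hinton broth, compound dissolved in DMSO and serially diluted from 200 μg/ml down to 0.098 μg/ml. Log-phase inoculum at final ~5×10^5 CFU/ml, incubated ~18 h at 35 °C in ambient air; MIC is the lowest concentration inhibiting growth, read by plate reader or visually.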

S. aureus RN450 = assay: Antibacterial activity MIC, Gram+ (Table 9); format: cell-based; settings: Staphylococcus aureus, CAMHB, 35° C., approximately 18 hr
Procedure, shortened: as §2

RANKL = assay: Paw extract biomarker ELISA, CIA mice: RANKL; format: in vivo, mouse; settings: paw extracts from CIA mice
Protocol: • 1. Male DBA/1 mice were immunized i.d. with an emulsion of 200 μg bovine type II collagen in Complete Freund's Adjuvant. • 2. On day 21, mice received i.d. boost of 100 μg collagen in Incomplete Freund's Adjuvant • 3. Compounds were administered i.p. daily for 7 days starting from disease onset (day 3-4 after boost). • 4. Foot swelling was measured by an engineering micrometer and disease severity was scored accordingly (1, erythema and mild swelling confined to the tarsal or ankle joint; 2, erythema and mild swelling extending from the ankle to the mid-foot; 3, erythema and moderate swelling extending from the ankle to the metatarsal joints; 4, erythema and severe swelling encompassing the ankle, foot, and digits). • 5. Change (Δ) of paw thickness=sum of paw thickness from 4 paws of a mouse (experimental)−sum of baseline paw thickness from 4 paws of the same mouse. • 6. % inhibition=cumulative A paw thickness (disease group−compound-treated group)/cumulative A paw thickness (disease group)
• 1. Paws were collected from mice after 5-7 days of dosing and dissected free of skin. • 2. The paws were then homogenized in ice-cold PBS (2 ml/4 paws/mouse) containing 1× protease inhibitor using a Polytron homogenizer. • 3. Debris and particles were removed from the homogenized samples by centrifugation. • 4. Liquid layers were collected for MMP-9, IL-1, IL-6, RANKL, MCP-1, and TNFα analysis using ELISA kits from R & D System.

[7] = 25 mg/kg/day i.p., dosed after disease onset

In the case of `COC(=O)c1cc(N(C)C)c2c(c1O)C(=O)C1=C(O)[C@]3(O)C(=O)C(C(N)=O)=C(O)C[C@@H]3C[C@@H]1C2` [Compound W], the “Percent level of Biomarker Tissue [c] Compared to Untreated Control, MMP-9 AVG” value (MMP-9) is reported as 72%, the “% Inhibition (Change in Paw Thickness) AVG” value [1, 7] is reported as 60% and the “% Inhibition (Clinical Score) AVG” value [1, 7] is reported as 40%. The “EC50 in inflammation suppression in CIA mice” value ([1]; CIA mice, i.p. daily) was 20 mg/kg/day i.p, the “Change in Paw Thickness (mm) Mean” value ([1]; day 1 of dosing, 25 mg/kg/day i.p.) was 0.71 mm and the “Change in Paw Thickness (mm) Mean” value ([1]; day 2 of dosing, 25 mg/kg/day i.p.) was 0.41 mm. For the same compound, the “Change in Paw Thickness (mm) Mean” value ([1]; day 3 of dosing, 25 mg/kg/day i.p.) was 0.46 mm, the “Change in Paw Thickness (mm) Mean” value ([1]; day 4 of dosing, 25 mg/kg/day i.p.) was 0.56 mm and the “Change in Paw Thickness (mm) Mean” value ([1]; day 5 of dosing, 25 mg/kg/day i.p.) was 0.51 mm. For the same compound, the “Change in Paw Thickness (mm) Mean” value ([1]; day 6 of dosing, 25 mg/kg/day i.p.) was 0.45 mm, the “Change in Paw Thickness (mm) Mean” value ([1]; day 7 of dosing, 25 mg/kg/day i.p.) was 0.35 mm and the “Change in Paw Thickness (mm) Mean” value ([1]; day 8 of dosing, 25 mg/kg/day i.p.) was 0.60 mm. The “Effects on reduction of paw swelling and clinical score compared to either minocycline or methotrexate” value ([1]; murine CIA model) was “greater”, the “joint inflammation when administered after disease onset” value ([1]; murine CIA model) was “inhibited joint inflammation” and the bioavailability ([2]; male, CD/IGS, plasma, after oral dosing of 5 mg/kg, read-out: PK Parameters (Rat) % F, fraction of absorption) was 52%. For the same compound, the “bio-available after oral dosing in rats” value ([2]; oral) was “bio-available”, the half-life ([2]; plasma, male CD/IGS rats, 1 mg/kg i.v. or 5 mg/kg oral, read-out: PK Parameters (Rat) T1/2 (converted)) was 3 h and the “anti-bacterial activity compared to minocycline” value [3] was “no anti-bacterial activity”. The MIC ([3]; Escherichia coli, E. coli ATCC25922, cation-adjusted Mueller Hinton broth) was over 64 µg/mL, the inhibition in vivo at 6 mg/kg ([4]; Dose 6 mg/kg) was 25% and the inhibition in vivo at 12 mg/kg ([4]; Dose 12 mg/kg) was 32%. The inhibition in vivo at 25 mg/kg ([4]; Dose 25 mg/kg) was 60%, the “Percent level of Biomarker Tissue [c] Compared to Untreated Control, IL-1 AVG” value (IL-1) was 32% and the “Percent level of Biomarker Tissue [c] Compared to Untreated Control, IL-6 AVG” value (IL-6) was 28%. For the same compound, the “inhibition of inflammatory/osteoclastic cytokines (MMP-9, IL-1, IL-6, MCP-1, RANKL) in vivo” value [5] was “better than minocycline”, the “Percent level of Biomarker Tissue [c] Compared to Untreated Control, MCP-1 AVG” value (MCP-1) was 28% and the IC50 [6] was over 100 µM. The MIC (E. coli 25922) was over 64 µg/mL, the MIC (S. aureus RN450) was 4 µg/mL (≈ 8.47 µM) and the “Percent level of Biomarker Tissue [c] Compared to Untreated Control, RANKL AVG” value (RANKL) was 27%.
